Assay [1] is described as follows: Body weight of mice after peptide injection. As to conditions: Example 41; DIO mice, subcutaneous daily for 7 days, 10 nmol/kg, Day 7.
The next assay concerns the target T1, glucagon receptor (Homo sapiens, UniProt P47871).
T1 construct: expressed in transfected cells; host or cells: HEK293
The assay is described as follows: cAMP synthesis functional assay (firefly luciferase reporter in HEK293 cells), glucagon receptor. Type of assay: cell-based. As to conditions: for % Relative activity at the Receptor for Glucagon: Table 8. A general note: In a reporter assay the amount or activity of a reporter protein is the signal.

Another assay concerns the target T2, GLP-1 receptor (Homo sapiens, UniProt P43220).
T2 construct: expressed in transfected cells; host or cells: HEK293
The assay can be described thus: cAMP synthesis functional assay (firefly luciferase reporter in HEK293 cells), GLP-1 receptor. Format: cell-based. To be noted: for % Relative activity at the Receptor for GLP-1: Table 8.

A further assay has as its target T3, GIP receptor (Homo sapiens, UniProt P48546).
T3 construct: expressed in transfected cells; host or cells: HEK293
T3 sequence (P48546 22-466): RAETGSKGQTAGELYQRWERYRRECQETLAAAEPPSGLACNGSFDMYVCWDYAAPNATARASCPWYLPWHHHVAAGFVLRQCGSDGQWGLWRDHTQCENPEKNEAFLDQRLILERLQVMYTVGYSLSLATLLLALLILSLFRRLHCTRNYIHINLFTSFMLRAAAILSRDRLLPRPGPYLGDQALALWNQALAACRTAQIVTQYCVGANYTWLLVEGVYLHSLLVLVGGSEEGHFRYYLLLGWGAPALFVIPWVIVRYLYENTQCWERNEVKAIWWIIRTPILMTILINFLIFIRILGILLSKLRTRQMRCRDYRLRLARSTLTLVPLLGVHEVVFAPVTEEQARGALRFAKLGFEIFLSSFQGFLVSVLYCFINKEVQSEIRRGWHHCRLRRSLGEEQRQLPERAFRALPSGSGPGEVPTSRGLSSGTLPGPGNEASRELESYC
The assay is described as follows: cAMP synthesis functional assay (firefly luciferase reporter in HEK293 cells), GIP receptor. Format: cell-based. As to conditions: for EC50: GIP Receptor EC50, nM; for % Relative activity at the Receptor for GIP: Table 8.

Assay [2] has as its system glucagon receptor, GLP-1 receptor or GIP receptor. The assay is described as follows: Agonist profile across receptors assigned from the cAMP reporter assay data. Type of assay: cell-based. As to conditions: assigned from the in vitro EC50 data of Tables 1-4.
[3] abbreviates: Table 4, relative to the native hormone.

*1 amine or outer side, *2 acyl side, *3 side chain or, on linkers, in order; H or OH if unused. Where a SMILES comes first, the peptide text is derived from it. Where no end group is shown, it is not given here. Side-chain parts run from the residue outwards. [ ]: non-standard residue; d: D form. The star is where a group is joined. γGlu = O=C(O)[C@H](CCC(=O)[*:2])N[*:1]; Palmitoyl = CCCCCCCCCCCCCCCC(=O)*; Aib = CC(C)(N)C(=O)O

T2 sequence (P43220 24-463, species assumed): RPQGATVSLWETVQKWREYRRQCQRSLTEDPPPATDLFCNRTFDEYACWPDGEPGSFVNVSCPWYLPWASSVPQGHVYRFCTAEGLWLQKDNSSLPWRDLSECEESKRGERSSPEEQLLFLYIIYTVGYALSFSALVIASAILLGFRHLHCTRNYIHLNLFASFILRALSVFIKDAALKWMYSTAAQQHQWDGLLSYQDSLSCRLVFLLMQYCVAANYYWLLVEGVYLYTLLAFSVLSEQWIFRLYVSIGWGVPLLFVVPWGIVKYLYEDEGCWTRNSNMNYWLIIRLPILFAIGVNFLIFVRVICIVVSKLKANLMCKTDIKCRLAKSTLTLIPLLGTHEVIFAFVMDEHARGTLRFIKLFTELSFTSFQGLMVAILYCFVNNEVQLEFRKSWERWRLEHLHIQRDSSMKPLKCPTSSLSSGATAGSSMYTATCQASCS
T1 sequence (P47871 26-477): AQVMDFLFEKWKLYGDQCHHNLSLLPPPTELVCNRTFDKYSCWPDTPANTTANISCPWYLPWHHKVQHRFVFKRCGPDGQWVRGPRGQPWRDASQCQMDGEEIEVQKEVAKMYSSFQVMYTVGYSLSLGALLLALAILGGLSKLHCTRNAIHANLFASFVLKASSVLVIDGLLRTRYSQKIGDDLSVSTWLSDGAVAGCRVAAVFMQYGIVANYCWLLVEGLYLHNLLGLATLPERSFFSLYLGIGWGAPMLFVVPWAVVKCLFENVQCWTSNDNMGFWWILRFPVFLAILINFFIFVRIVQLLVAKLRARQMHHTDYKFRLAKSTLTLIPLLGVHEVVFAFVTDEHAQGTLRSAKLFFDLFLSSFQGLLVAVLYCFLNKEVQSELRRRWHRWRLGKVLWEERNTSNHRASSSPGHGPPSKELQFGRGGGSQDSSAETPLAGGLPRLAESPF

With “mt-384: glucagon analog: Tyr1, AIB2, Lys10(γGlu-γGlu-C16), Ile12, Lys16, Gln17, Ala18, AIB20, Glu21, Asn24, Leu27, Ala28, Gly29, GPSSGAPPPS, amide (Y[Aib]QGTFTSDK([γGlu-γGlu-C16])SIYLDKQAA[Aib]EFVNWLLAGGPSSGAPPPS-NH2)”, in assay [1], the “total change in body weight (weight loss, decrease)” value is given as approximately 21%.

In general, EC50 refers to the midpoint of the concentration-response curve. A low value points to an effect from little substance. Consider `CCCCCCCCCCCCCCCC(=O)N[C@@H](CCC(=O)N[C@@H](CCC(=O)NCCCC[C@H](NC(=O)[C@H](CC(=O)O)NC(=O)[C@H](CO)NC(=O)[C@@H](NC(=O)[C@H](Cc1ccccc1)NC(=O)[C@@H](NC(=O)CNC(=O)[C@H](CCC(=O)O)NC(=O)C(C)(C)NC(=O)[C@@H](N)Cc1ccc(O)cc1)[C@@H](C)O)[C@@H](C)O)C(=O)N[C@@H](CO)C(=O)N[C@H](C(=O)N[C@@H](Cc1ccc(O)cc1)C(=O)N[C@@H](CC(C)C)C(=O)N[C@@H](CC(=O)O)C(=O)N[C@@H](CCCCN)C(=O)N[C@@H](CCC(N)=O)C(=O)N[C@@H](C)C(=O)N[C@@H](C)C(=O)NC(C)(C)C(=O)N[C@@H](CCC(=O)O)C(=O)N[C@@H](Cc1ccccc1)C(=O)N[C@H](C(=O)N[C@@H](CC(N)=O)C(=O)N[C@@H](Cc1c[nH]c2ccccc12)C(=O)N[C@@H](CC(C)C)C(=O)N[C@@H](CC(C)C)C(=O)N[C@@H](C)C(=O)NCC(=O)NCC(=O)N1CCC[C@H]1C(=O)N[C@@H](CO)C(=O)N[C@@H](CO)C(=O)NCC(=O)N[C@@H](C)C(=O)N1CCC[C@H]1C(=O)N1CCC[C@H]1C(=O)N1CCC[C@H]1C(=O)N[C@@H](CO)C(=O)N[C@@H](CCCCN)C(N)=O)C(C)C)[C@@H](C)CC)C(=O)O)C(=O)O` [mt-369] (H-Y[Aib]EGTFTSDK([γGlu-γGlu-Palmitoyl])SIYLDKQAA[Aib]EFVNWLLAGGPSSGAPPPSK-NH2; N-terminus assumed), for which the “Glucagon Receptor relative activity” value at glucagon receptor (setting [3]) was found to be 1.54%. The “% Relative activity at the Receptor for Glucagon” value on glucagon receptor came to 1.54%. On GLP-1 receptor (setting [3]), the “GLP-1 Receptor relative activity” value was 385.05%. Besides, the “% Relative activity at the Receptor for GLP-1” value at GLP-1 receptor is listed as 385.05%. Also, the response at GIP receptor (Table 4) was half-maximal at 0.0014 nM (EC50). Moreover, on GIP receptor (setting [3]), the “GIP Receptor relative activity” value is on record as 204.26%. Also, the “% Relative activity at the Receptor for GIP” value on GIP receptor is on record as 204.26%. For the same compound, the “total change in body weight (weight loss, decrease)” value in assay [1] was approximately 25%.

Take “mt-385: same structure as Peptide mt-384 except that Thr at position 7 was changed to an Ile (Y[Aib]QGTFISDK([γGlu-γGlu-C16])SIYLDKQAA[Aib]EFVNWLLAGGPSSGAPPPS-NH2)”: the “total change in body weight (weight loss, decrease)” value in assay [1] is approximately 15%.

Regarding `CCCCCCCCCCCCCCCC(=O)N[C@@H](CCC(=O)N[C@@H](CCC(=O)NCCCC[C@H](NC(=O)[C@H](CO)NC(=O)[C@@H]1CCCN1C(=O)[C@@H]1CCCN1C(=O)[C@@H]1CCCN1C(=O)[C@H](C)NC(=O)CNC(=O)[C@H](CO)NC(=O)[C@H](CO)NC(=O)[C@@H]1CCCN1C(=O)CNC(=O)CNC(=O)[C@H](C)NC(=O)[C@H](CC(C)C)NC(=O)[C@H](CC(C)C)NC(=O)[C@H](Cc1c[nH]c2ccccc12)NC(=O)[C@H](CC(N)=O)NC(=O)[C@@H](NC(=O)[C@H](Cc1ccccc1)NC(=O)[C@H](CCC(=O)O)NC(=O)C(C)(C)NC(=O)[C@H](C)NC(=O)[C@H](C)NC(=O)[C@H](CCC(N)=O)NC(=O)[C@H](CCCCN)NC(=O)[C@H](CC(=O)O)NC(=O)[C@H](CC(C)C)NC(=O)[C@H](Cc1ccc(O)cc1)NC(=O)[C@@H](NC(=O)[C@H](CO)NC(=O)[C@H](Cc1ccc(O)cc1)NC(=O)[C@H](CC(=O)O)NC(=O)[C@H](CO)NC(=O)[C@@H](NC(=O)[C@H](Cc1ccccc1)NC(=O)[C@@H](NC(=O)CNC(=O)[C@H](CCC(=O)O)NC(=O)C(C)(C)NC(=O)[C@@H](N)Cc1ccc(O)cc1)[C@@H](C)O)[C@@H](C)O)[C@@H](C)CC)C(C)C)C(N)=O)C(=O)O)C(=O)O` [mt-367], the “Glucagon Receptor relative activity” value at glucagon receptor (setting [3]) came out at 4.11%. Also, the “% Relative activity at the Receptor for Glucagon” value on glucagon receptor is 4.11%. Besides, on GLP-1 receptor (setting [3]), the “GLP-1 Receptor relative activity” value stood at 405.94%. Also, at GLP-1 receptor, the “% Relative activity at the Receptor for GLP-1” value is on record as 405.94%. Further, the midpoint of the response on GIP receptor (Table 4), the EC50, lay at 0.0014 nM. Moreover, the “GIP Receptor relative activity” value at GIP receptor (setting [3]) came out at 202.82%. In addition, on GIP receptor, the “% Relative activity at the Receptor for GIP” value amounted to 202.82%. The “total change in body weight (weight loss, decrease)” value in assay [1] is listed as approximately 18%.

As to `CC[C@H](C)[C@H](NC(=O)[C@H](CO)NC(=O)[C@H](Cc1ccc(O)cc1)NC(=O)[C@H](CC(=O)O)NC(=O)[C@H](CO)NC(=O)[C@@H](NC(=O)[C@H](Cc1ccccc1)NC(=O)[C@@H](NC(=O)CNC(=O)[C@H](CCC(N)=O)NC(=O)C(C)(C)NC(=O)[C@@H](N)Cc1ccc(O)cc1)[C@@H](C)O)[C@@H](C)O)C(=O)N[C@@H](Cc1ccc(O)cc1)C(=O)N[C@@H](CC(C)C)C(=O)N[C@@H](CC(=O)O)C(=O)NC(C)(C)C(=O)N[C@@H](CCC(N)=O)C(=O)N[C@@H](C)C(=O)N[C@@H](C)C(=O)N[C@@H](CCC(N)=O)C(=O)N[C@@H](CCC(=O)O)C(=O)N[C@@H](Cc1ccccc1)C(=O)N[C@H](C(=O)N[C@@H](CC(N)=O)C(=O)N[C@@H](Cc1c[nH]c2ccccc12)C(=O)N[C@@H](CC(C)C)C(=O)N[C@@H](CC(C)C)C(=O)N[C@@H](C)C(=O)NCC(=O)NCC(=O)N1CCC[C@H]1C(=O)N[C@@H](CO)C(=O)N[C@@H](CO)C(=O)NCC(=O)N[C@@H](C)C(=O)N1CCC[C@H]1C(=O)N1CCC[C@H]1C(=O)N1CCC[C@H]1C(=O)N[C@@H](CO)C(=O)N[C@@H](CS)C(N)=O)C(C)C` [mt-242] (H-Y[Aib]QGTFTSDYSIYLD[Aib]QAAQEFVNWLLAGGPSSGAPPPSC-NH2; N-terminus assumed), the EC50 turned out to be 1.11 nM at glucagon receptor (Glucagon Receptor EC50, nM, Table 2, linear peptides with AIB at position 16 and/or 20); 0.102 nM at GLP-1 receptor (GLP-1 Receptor EC50, nM, Table 2); 0.078 nM on GIP receptor (Table 2). In addition, the “Glucagon Receptor relative activity” value at glucagon receptor (Table 2) was determined as 9.58%. The “GLP-1 Receptor relative activity” value at GLP-1 receptor (Table 2) was 29.41%. In addition, at GIP receptor (Table 2), the “GIP Receptor relative activity” value is 14.10%. The “receptor activity profile (glucagon / GLP-1 / GIP agonism)” value in assay [2] was “exhibited activities of glucagon/GLP-1/GIP triagonists”.

For the origin of these results see patent US9062124B2, “GIP-based mixed agonists for treatment of metabolic disorders and obesity” (priority 2008, dated 2015).
